Experimental data: patent US20050112573A1, “Method of detecting toxic substance” (priority 2001, published 2005)

System: yeast genes (level of expressed mRNA)
Assay: DNA chip analysis of expressed mRNA of yeast genes after 2 h culture with a toxic chemical substance
Type: cell-based, Saccharomyces cerevisiae S288C
Conditions: for The level of expressed mRNA in the presence of chemical substance/ (ratio to absence of chemical substance): stress protein genes, DNA chip; for The level of expressed mRNA in the presence of chemical substance/ in its absence, gene YPR184W: yeast gene YPR184W
Procedure: Yeast (Saccharomyces cerevtisiae S288C (α SUC2mal mel gap2 CUP1)) were cultured at 25° C. on YPD medium (yeast extract 1%, polypepton 2%, glucose 2%). One of toxic chemical substances was added to the cell at logarithmic growth phase, and the cell was further cultured for two hours. Cell was cultured without any chemical substance in the same condition, and was used as control. Concentrations of the chemical substances were defined to inhibit the growth of the yeast but not lead to death.
After the completion of cultivation, the culture was centrifuged to collect the cells. To the cells, sodium acetate buffer (50 mM sodium acetate, 10 mM EDTA, 1% SDS) was added, and the mixture was shaken at 65° C. for five minutes, followed by returning to room temperature, and obtaining the supernatant, which procedure was repeated two times. To the supernatant, ½ amount of a solution of phenol/chloroform was added, and the mixture was centrifuged to give a supernatant, which was added with an equal amount of chloroform, and the mixture was centrifuged to give a supernatant. To the supernatant, an equal amount of isopropanol containing 0.3 M sodium acetate was added, and the mixture was allowed to stand at room temperature for 30 minutes, after which the mixture was centrifuged to give a sediment of the whole RNAs. Seventy % ethanol was added to the sediment, and the mixture was again centrifuged to give a sediment, which was then dried and dissolved in water. mRNA was isolated from the whole RNAs as followings. In view of the fact that a poly A chain is attached to the 3′ terminus of mRNA, a polynucleotide having a poly T structure which was immobilized on the surface of latex beads was used to trap the mRNA, and then the mRNA was washed and eluted with spine column (Oligotex-dT30<Super>mRNA Purification Kit, Takara). Reverse transcription of the mRNA was conducted with a reverse transcriptase (Super Script II Reverse Transcriptase; catalogue No. 18064-014, GibcoBRL) using fluorescence-labeled nucleotides to give cDNAs that were introduced with Cy3-dUTP or Cy5-dUTP during the reverse transcription.
The labeled cDNAs were dissolved in TE buffer (10 mM Tris-HCl/1 mM EDTA, pH8.0), and the solution was dropped on the DNA chip containing the whole genes of yeast (DNA Chip Research Inc. Japan) so that the cDNAs were hybridized on the DNA chip at 65° C. for over 12 hours. The fluoresces intensity of the DNA chip was read with a scanner, and the ratio relative to the fluorescence intensity resulting from the absence of chemical substance was estimated as the following, which is shown in Tables 1 to 9: [formula]
In the Tables, “Intensity” indicated in the rightmost column is a value of the level of expressed mRNA of each gene in control cells as divided by the average level of the expressions of the whole genes.

SMILES: CCCCCCCCCCCCOS(=O)(=O)[O-].[Na+] [(18), sodium lauryl sulfate]
- The level of expressed mRNA in the presence of chemical substance/The level of expressed mRNA in the absence of chemical substance (yeast gene YNL006W): 1.3
- The level of expressed mRNA in the presence of chemical substance/The level of expressed mRNA in the absence of chemical substance (yeast gene YNL007C): 1.0
- The level of expressed mRNA in the presence of chemical substance/ (in its absence), gene YNL025C (yeast gene YNL025C, ratio of DNA chip fluorescence intensity to that without chemical substance): 1.3
- The level of expressed mRNA in the presence of chemical substance/ (ratio to absence of chemical substance) (yeast gene YNL064C): 0.7
- The level of expressed mRNA in the presence of chemical substance/ (ratio to absence), gene YNL073W (yeast gene YNL073W, mitochondria-located protein genes, 2 h culture with chemical): 1.0
- The level of expressed mRNA in the presence of chemical substance/The level of expressed mRNA in the absence of chemical substance (yeast gene YNL093W): 3.1
- The level of expressed mRNA in the presence of chemical substance/ (in its absence), gene YNL192W (yeast gene YNL192W, ratio of DNA chip fluorescence intensity to that without chemical substance): 2.8
- The level of expressed mRNA in the presence of chemical substance/The level of expressed mRNA in the absence of chemical substance (yeast gene YNL333W): 1.1
- The level of expressed mRNA in the presence of chemical substance/The level of expressed mRNA in the absence of chemical substance (yeast gene YNR010W): 2.3
- The level of expressed mRNA in the presence of chemical substance/The level of expressed mRNA in the absence of chemical substance (yeast gene YNR069C): 0.9
- The level of expressed mRNA in the presence of chemical substance/ (in its absence), gene YNR072W (yeast gene YNR072W, ratio of DNA chip fluorescence intensity to that without chemical substance): 1.0
- The level of expressed mRNA in the presence of chemical substance/ (ratio to absence of chemical substance) (yeast gene YNR076W): 0.8
- The level of expressed mRNA in the presence of chemical substance/The level of expressed mRNA in the absence of chemical substance (yeast gene YOL013C): 1.4
- The level of expressed mRNA in the presence of chemical substance/ (ratio to absence), gene YOL096C (yeast gene YOL096C, mitochondria-located protein genes, 2 h culture with chemical): 1.2
- The level of expressed mRNA in the presence of chemical substance/ (in its absence), gene YOL096C (yeast gene YOL096C, ratio of DNA chip fluorescence intensity to that without chemical substance): 1.2
- The level of expressed mRNA in the presence of chemical substance/ (in its absence), gene YOL108C (yeast gene YOL108C, ratio of DNA chip fluorescence intensity to that without chemical substance): 2.7
- The level of expressed mRNA in the presence of chemical substance/ (in its absence), gene YOL116W (yeast gene YOL116W, ratio of DNA chip fluorescence intensity to that without chemical substance): 1.4
- The level of expressed mRNA in the presence of chemical substance/ (ratio to absence of chemical substance) (yeast gene YOL161C): 1.0
- The level of expressed mRNA in the presence of chemical substance/The level of expressed mRNA in the absence of chemical substance (yeast gene YOL164W): 1.3
- The level of expressed mRNA in the presence of chemical substance/ (ratio to absence of chemical substance) (yeast gene YOR008C): 1.3
- The level of expressed mRNA in the presence of chemical substance/ (ratio to absence of chemical substance) (yeast gene YOR009W): 0.8
- The level of expressed mRNA in the presence of chemical substance/ (ratio to absence of chemical substance) (yeast gene YOR010C): 0.6
- The level of expressed mRNA in the presence of chemical substance/The level of expressed mRNA in the absence of chemical substance (yeast gene YOR036W): 1.7
- The level of expressed mRNA in the presence of chemical substance/ (in its absence), gene YOR103C (yeast gene YOR103C, ratio of DNA chip fluorescence intensity to that without chemical substance): 1.5
- The level of expressed mRNA in the presence of chemical substance/The level of expressed mRNA in the absence of chemical substance (yeast gene YOR117W): 0.9
- The level of expressed mRNA in the presence of chemical substance/The level of expressed mRNA in the absence of chemical substance (yeast gene YOR124C): 1.0
- The level of expressed mRNA in the presence of chemical substance/The level of expressed mRNA in the absence of chemical substance (yeast gene YOR132W): 1.6
- The level of expressed mRNA in the presence of chemical substance/The level of expressed mRNA in the absence of chemical substance (yeast gene YOR157C): 1.2
- The level of expressed mRNA in the presence of chemical substance/ (in its absence), gene YOR180C (yeast gene YOR180C, ratio of DNA chip fluorescence intensity to that without chemical substance): 2.3
- The level of expressed mRNA in the presence of chemical substance/The level of expressed mRNA in the absence of chemical substance (yeast gene YOR181W): 0.6
- The level of expressed mRNA in the presence of chemical substance/The level of expressed mRNA in the absence of chemical substance (yeast gene YOR185C): 1.1
- The level of expressed mRNA in the presence of chemical substance/The level of expressed mRNA in the absence of chemical substance (yeast gene YOR198C): 1.5
- The level of expressed mRNA in the presence of chemical substance/ (in its absence), gene YOR251C (yeast gene YOR251C, ratio of DNA chip fluorescence intensity to that without chemical substance): 1.3
- The level of expressed mRNA in the presence of chemical substance/The level of expressed mRNA in the absence of chemical substance (yeast gene YOR259C): 1.5
- The level of expressed mRNA in the presence of chemical substance/The level of expressed mRNA in the absence of chemical substance (yeast gene YOR261C): 1.9
- The level of expressed mRNA in the presence of chemical substance/The level of expressed mRNA in the absence of chemical substance (yeast gene YOR288C): 1.6
- The level of expressed mRNA in the presence of chemical substance/ (ratio to absence), gene YOR316C (yeast gene YOR316C, mitochondria-located protein genes, 2 h culture with chemical): 1.0
- The level of expressed mRNA in the presence of chemical substance/ (in its absence), gene YOR348C (yeast gene YOR348C, ratio of DNA chip fluorescence intensity to that without chemical substance): 0.9
- The level of expressed mRNA in the presence of chemical substance/The level of expressed mRNA in the absence of chemical substance (yeast gene YOR355W): 0.9
- The level of expressed mRNA in the presence of chemical substance/ (in its absence), gene YOR363C (yeast gene YOR363C, ratio of DNA chip fluorescence intensity to that without chemical substance): 1.8
- The level of expressed mRNA in the presence of chemical substance/The level of expressed mRNA in the absence of chemical substance (yeast gene YOR383C): 1.1
- The level of expressed mRNA in the presence of chemical substance/ (ratio to absence), gene YPL040C (yeast gene YPL040C, mitochondria-located protein genes, 2 h culture with chemical): 1.1
- The level of expressed mRNA in the presence of chemical substance/ (ratio to absence of chemical substance) (yeast gene YPL059W): 1.3
- The level of expressed mRNA in the presence of chemical substance/The level of expressed mRNA in the absence of chemical substance (yeast gene YPL089C): 1.1
- The level of expressed mRNA in the presence of chemical substance/The level of expressed mRNA in the absence of chemical substance (yeast gene YPL109C): 1.2
- The level of expressed mRNA in the presence of chemical substance/ (ratio to absence), gene YPL134C (yeast gene YPL134C, mitochondria-located protein genes, 2 h culture with chemical): 1.3
- The level of expressed mRNA in the presence of chemical substance/ (ratio to absence of chemical substance) (yeast gene YPL140C): 1.4
- The level of expressed mRNA in the presence of chemical substance/ (in its absence), gene YPL148C (yeast gene YPL148C, ratio of DNA chip fluorescence intensity to that without chemical substance): 1.1
- The level of expressed mRNA in the presence of chemical substance/The level of expressed mRNA in the absence of chemical substance (yeast gene YPL149W): 2.9
- The level of expressed mRNA in the presence of chemical substance/The level of expressed mRNA in the absence of chemical substance (yeast gene YPL154C): 2.0
- The level of expressed mRNA in the presence of chemical substance/ (ratio to absence of chemical substance) (yeast gene YPL194W): 0.8
- The level of expressed mRNA in the presence of chemical substance/ (ratio to absence of chemical substance) (yeast gene YPR005C): 1.1
- The level of expressed mRNA in the presence of chemical substance/The level of expressed mRNA in the absence of chemical substance (yeast gene YPR103W): 1.5
- The level of expressed mRNA in the presence of chemical substance/The level of expressed mRNA in the absence of chemical substance (yeast gene YPR108W): 1.3
- The level of expressed mRNA in the presence of chemical substance/ (in its absence), gene YPR165W (yeast gene YPR165W, ratio of DNA chip fluorescence intensity to that without chemical substance): 2.7
- The level of expressed mRNA in the presence of chemical substance/ in its absence, gene YPR184W (energy system protein genes, 2 h culture with the chemical, ratio to control without chemical): 1.7
- The level of expressed mRNA in the presence of chemical substance/ in its absence, gene YPR184W (ratio of DNA chip fluorescence intensity to that without chemical substance): 1.7
